Source: patent publication US20230227499A1, “PRODRUGS OF MITOCHONDRIA-TARGETING OLIGOPEPTIDES” (Stealth Biotherapeutics Inc., priority 2020, published 2023)
“Also recorded” adds a separate entry of the source.

Legend:
[1] = test system: isolated perfused guinea pig heart; test: Ischemia-reperfusion-induced myocardial stunning in isolated perfused guinea pig heart (Langendorff); conditions: for myocardial contractile force during ischemia-reperfusion / tolerance of ischemia versus buffer-treated hearts: SS-02 100 nM or SS-31 1 nM perfused 30 min; for myocardial contractile force during ischemia-reperfusion: 30-min global ischemia, then reperfusion (FIG. 2)
Procedure: Guinea pig hearts were rapidly isolated, and the aorta was cannulated in situ and perfused in a retrograde fashion with an oxygenated Krebs-Henseleit solution (pH 7.4) at 34° C. The heart was then excised, mounted on a modified Langendorff perfusion apparatus, and perfused at constant pressure (40 cm H20). Contractile force was measured with a small hook inserted into the apex of the left ventricle and the silk ligature tightly connected to a force-displacement transducer. Coronary flow was measured by timed collection of pulmonary artery effluent.
Hearts were perfused with buffer, 2′,6′-Dmt-D-Arg-PheLys-NH2 (SS-02) (100 nM) or D-Arg-Dmt-Lys-Phe-NH2 (SS-31) (1 nM) for 30 min and then subjected to 30 min of global ischemia Reperfusion was carried out with the same solution used prior to ischemia.

[2] = test system: mitochondria; test: Cytochrome c release from mitochondria induced by Ca2+; conditions: FIG. 1C
Procedure: (§1) FIGS. 1A-1C depict that D-Arg-Dmt-Lys-Phe-NH2 (SS-31; MTP-131) inhibits mitochondrial swelling and cytochrome c release. […] Gray line, buffer; red line, SS-31. […] Swelling was measured by light scattering measured at 570 nm. FIG. 1 C depicts the comparison of SS-02 and SS-31 with cyclosporine (CsA) in inhibiting mitochondrial swelling and cytochrome c release induced by Ca2+. The amount of cytochrome c released was expressed as percent of total cytochrome c in mitochondria. Data are presented as mean±s.e., n=3.
(§2) MPT pore opening results in mitochondrial swelling. We examined the effects of (SS-31) on mitochondrial swelling, which was measured using light scattering monitored at 570 nm.

[3] = test system: isolated mitochondria; test: Mitochondrial permeability transition (MPT) induced by Ca2+ in isolated mitochondria; conditions: pretreatment of isolated mitochondria with SS-31 10 μM (FIG. 1A)
Procedure: as §1, §2

[4] = test system: mitochondria; test: Mitochondrial swelling induced by Ca2+, light scattering at 570 nm; conditions: pretreatment with SS-31 50 μM, light scattering at 570 nm (FIG. 1B)
Procedure: as §1, §2

[5] = 30 min global ischemia, then reperfusion

Cc1cc(O)cc(C)c1C[C@H](CC(=O)[C@H](N)CCCNC(=N)N)C(=O)N[C@@H](CCCCN)C(=O)N[C@@H](Cc1ccccc1)C(N)=O [SS-31, D-Arg-Dmt-Lys-Phe-NH2]
myocardial contractile force during ischemia-reperfusion [1]: protects myocardial contractile force | tolerance of ischemia versus buffer-treated hearts [1, 5]: tolerated ischemia much better than buffer-treated hearts | inhibition of cardiac stunning ([1]; SS-31 1 nM, 30 min global ischemia, then reperfusion): complete inhibition of cardiac stunning | heart rate ([1]; SS-31 1 nM, ischemia-reperfusion): no decrease in heart rate | coronary flow during reperfusion ([1]; SS-31 1 nM, timed collection of pulmonary artery effluent): well-sustained throughout reperfusion | cytochrome c release induced by Ca2+ [2]: has the same ability to protect against | onset of MPT induced by Ca2+ [3]: has the same ability to protect against MPT; also recorded: prevents onset of MPT | mitochondrial swelling induced by Ca2+ [4]: has the same ability to protect against; also recorded: inhibited mitochondrial swelling

2′,6′-Dmt-D-Arg-PheLys-NH2 [SS-02]
myocardial contractile force during ischemia-reperfusion [1]: protects myocardial contractile force | tolerance of ischemia versus buffer-treated hearts [1, 5]: tolerated ischemia much better than buffer-treated hearts
